Several values for one entry are separate records, joined by “and”; a condition that tells them apart may be missing. Equal entries are not always repeated.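 These data come from cells grown in 96-well plates and exposed to compound for 48 hours at five concentrations. GI50: concentration for 50% inhibition of growth.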 Activity calls are given as the source filed them. No stated cut-off is given here; in the data, active = GI50 up to about 1.1 µM and inactive = higher.
How the values were obtained:
Assay in all cases: NCI tumour cell line growth inhibition, 48 h
[1] = tested on: A549
[2] = tested on: CCRF-CEM
[3] = tested on: EKVX
[4] = tested on: HCT-116
[5] = tested on: HCT-15
[6] = tested on: HL-60
[7] = tested on: HT-29
[8] = tested on: IGROV-1
[9] = tested on: K562
[10] = tested on: MCF7
[11] = tested on: MDA-MB-435
[12] = tested on: MOLT-4
[13] = tested on: NCI-H23
[14] = tested on: NCI/ADR-RES
[15] = tested on: PC-3
[16] = tested on: SF-268
[17] = tested on: SF-295
[18] = tested on: SK-MEL-5
[19] = tested on: SR
[20] = tested on: SW-620
[21] = tested on: T47D
[22] = tested on: TK-10
[23] = tested on: UACC-62
[24] = tested on: 786-0
[25] = tested on: A498
[26] = tested on: ACHN
[27] = tested on: CAKI-1
[28] = tested on: COLO 205
[29] = tested on: DU-145
[30] = tested on: HCC 2998
[31] = tested on: HOP-62
[32] = tested on: HOP-92
[33] = tested on: KM12
[34] = tested on: LOX IMVI
[35] = tested on: M14
[36] = tested on: MDA-MB-231
[37] = tested on: MDA-N
[38] = tested on: NCI-H226
[39] = tested on: NCI-H460
[40] = tested on: OVCAR-3
[41] = tested on: OVCAR-4
[42] = tested on: OVCAR-5
[43] = tested on: OVCAR-8
[44] = tested on: RPMI-8226
[45] = tested on: RXF 393
[46] = tested on: SF-539
[47] = tested on: SK-MEL-28
[48] = tested on: SK-OV-3
[49] = tested on: SN12C
[50] = tested on: SNB-19
[51] = tested on: SNB-75
[52] = tested on: U-251
[53] = tested on: UACC-257
[54] = tested on: UO-31

**Q.** What does the source list for CC1(C)C2CC(=O)C1(C)C(OCc1ccccc1)C2Br (stereo unspecified)?
**A.** GI50 [1]: 37.8 µM (inactive) and 59.3 µM (inactive); GI50 [2]: 15.8 µM (inactive) and 20.5 µM (inactive); GI50 [3]: 50 µM (inactive) and 57.9 µM (inactive); GI50 [4]: 19.3 µM (inactive) and 38.2 µM (inactive); GI50 [5]: 17.3 µM and 34 µM; GI50 [6]: 22.5 µM (inactive) and 23.2 µM (inactive); GI50 [7]: 15.5 µM (inactive) and 22.6 µM (inactive); GI50 [8]: 74.8 µM (inactive) and 43.8 µM (inactive); GI50 [9]: 27.1 µM (inactive) and 23.2 µM (inactive); GI50 [10]: 36 µM (inactive) and 62.8 µM (inactive); GI50 [11]: 29.9 µM (inactive) and 25.6 µM (inactive); GI50 [12]: 17.7 µM (inactive) and 17.3 µM (inactive); GI50 [13]: 40.7 µM (inactive) and 27.9 µM (inactive); GI50 [14]: 20.7 µM (inactive) and 36.7 µM (inactive); GI50 [15]: 18 µM (inactive) and 28.6 µM (inactive); GI50 [16]: 56.6 µM (inactive); GI50 [17]: 25.2 µM (inactive) and 50.4 µM (inactive); GI50 [18]: 14.6 µM (inactive) and 20.7 µM (inactive); GI50 [19]: 21.4 µM (inactive) and 25.1 µM (inactive); GI50 [20]: 19.3 µM (inactive) and 32.7 µM (inactive); GI50 [21]: 46.2 µM (inactive) and 28.2 µM (inactive); GI50 [22]: 53.6 µM (inactive); GI50 [23]: 34.9 µM (inactive) and 58.3 µM (inactive)

**Q.** With Cc1nn(-c2ccccc2)c2nc3c(c(C)nn3-c3ccccc3)c(-c3ccc(C(F)(F)F)cc3)c12 as the molecule, how does the GI50 [24] read?
**A.** 60.1 µM (inactive)

**Q.** And the GI50 [25]?
**A.** > 100 µM (inactive)

**Q.** What about the GI50 [1] of the same molecule?
**A.** > 100 µM (inactive)

**Q.** And the GI50 [26]?
**A.** > 100 µM (inactive)

**Q.** And the GI50 [27]?
**A.** > 100 µM (inactive)

**Q.** And the GI50 [2]?
**A.** > 100 µM (inactive)

**Q.** What about the GI50 [28] of the same molecule?
**A.** > 100 µM (inactive)

**Q.** And the GI50 [29]?
**A.** > 100 µM (inactive)

**Q.** And the GI50 [3]?
**A.** > 100 µM (inactive)

**Q.** What about the GI50 [30] of the same molecule?
**A.** > 100 µM (inactive)

**Q.** What about the GI50 [4] of the same molecule?
**A.** > 100 µM (inactive)

**Q.** And the GI50 [5]?
**A.** > 100 µM

**Q.** What about the GI50 [6] of the same molecule?
**A.** > 100 µM (inactive)

**Q.** And the GI50 [31]?
**A.** > 100 µM (inactive)

**Q.** And the GI50 [32]?
**A.** > 100 µM (inactive)

**Q.** What about the GI50 [7] of the same molecule?
**A.** 52.8 µM (inactive)

**Q.** What about the GI50 [9] of the same molecule?
**A.** > 100 µM (inactive)

**Q.** What about the GI50 [33] of the same molecule?
**A.** > 100 µM (inactive)

**Q.** What about the GI50 [34] of the same molecule?
**A.** > 100 µM (inactive)

**Q.** And the GI50 [35]?
**A.** > 100 µM (inactive)

**Q.** What about the GI50 [10] of the same molecule?
**A.** > 100 µM (inactive)

**Q.** What about the GI50 [36] of the same molecule?
**A.** > 100 µM (inactive)

**Q.** What about the GI50 [11] of the same molecule?
**A.** > 100 µM (inactive)

**Q.** And the GI50 [37]?
**A.** > 100 µM (inactive)

**Q.** What about the GI50 [12] of the same molecule?
**A.** > 100 µM (inactive)

**Q.** What about the GI50 [38] of the same molecule?
**A.** > 100 µM (inactive)

**Q.** What about the GI50 [13] of the same molecule?
**A.** > 100 µM (inactive)

**Q.** And the GI50 [39]?
**A.** > 100 µM (inactive)

**Q.** What about the GI50 [14] of the same molecule?
**A.** > 100 µM (inactive)

**Q.** And the GI50 [40]?
**A.** > 100 µM (inactive)

**Q.** What about the GI50 [41] of the same molecule?
**A.** > 100 µM (inactive)

**Q.** And the GI50 [42]?
**A.** > 100 µM (inactive)

**Q.** What about the GI50 [43] of the same molecule?
**A.** > 100 µM (inactive)

**Q.** What about the GI50 [15] of the same molecule?
**A.** > 100 µM (inactive)

**Q.** And the GI50 [44]?
**A.** > 100 µM (inactive)

**Q.** And the GI50 [45]?
**A.** > 100 µM (inactive)

**Q.** What about the GI50 [16] of the same molecule?
**A.** 44.7 µM (inactive)

**Q.** And the GI50 [17]?
**A.** > 100 µM (inactive)

**Q.** And the GI50 [46]?
**A.** 72.3 µM (inactive)

**Q.** And the GI50 [47]?
**A.** > 100 µM (inactive)

**Q.** And the GI50 [18]?
**A.** > 100 µM (inactive)

**Q.** And the GI50 [48]?
**A.** > 100 µM (inactive)

**Q.** And the GI50 [49]?
**A.** > 100 µM (inactive)

**Q.** And the GI50 [50]?
**A.** 96.2 µM (inactive)

**Q.** And the GI50 [51]?
**A.** 39.4 µM (inactive)

**Q.** What about the GI50 [20] of the same molecule?
**A.** > 100 µM (inactive)

**Q.** What about the GI50 [21] of the same molecule?
**A.** > 100 µM (inactive)

**Q.** And the GI50 [22]?
**A.** > 100 µM (inactive)

**Q.** What about the GI50 [52] of the same molecule?
**A.** > 100 µM (inactive)

**Q.** And the GI50 [53]?
**A.** > 100 µM (inactive)

**Q.** What about the GI50 [23] of the same molecule?
**A.** > 100 µM (inactive)

**Q.** And the GI50 [54]?
**A.** > 100 µM (inactive)

**Q.** How did the GI50 [27] turn out when Cc1cc(-c2nc3ccc(O)cc3s2)ccc1N was run?
**A.** 34.8 µM (inactive)

From ChEMBL document CHEMBL1201862, “PubChem BioAssay data set” (2004)
